Measured values published in patent US5114920A, “BU-3292T antibiotics” (priority 1988, dated 1992).
≈ marks a conversion by molar mass, not a printed value. Starred links: 1 amine or outer side, 2 acyl side, 3 side chain; linkers in the order of their positions; H or OH if unused. Positions of bridges follow the written chain, without caps; N, C: chain ends. Non-standard residues stand in square brackets, D forms with d. Residues, ends and D or L forms follow the SMILES beside them. Chains are numbered I, II in the order given. Actinocin(9to1) = Cc1c2oc3c(C)ccc(C(=O)[*:1])c3nc-2c(C(=O)[*:2])c(N)c1=O; NMeV = CN[C@H](C(=O)O)C(C)C; Sar = CNCC(=O)O

What was measured:
[1] = test system: Aspergillus fumigatus IAM 2530; test: Antimicrobial activity, serial two-fold agar dilution method; assay type: cell-based; conditions: Sabouraud dextrose agar
Procedure: (§1) The antimicrobial activity of BU-3292T A and B was determined against aerobic and anaerobic bacteria and fungi by a serial two-fold agar dilution method. BU-3292T A and B are active against aerobic gram-positive bacteria, and weakly active against anaerobic gram-negative bacteria and fungi.

[2] = test system: Bacillus subtilis PCI-219; test: as above; assay type: cell-based; conditions: Nutrient agar
Procedure: as §1

[3] = test system: Bacteroides fragilis A22693; test: as above; assay type: cell-based; conditions: GAM agar
Procedure: as §1

[4] = test system: Candida albicans IAM 4888; test: as above; assay type: cell-based; conditions: Sabouraud dextrose agar
Procedure: as §1

[5] = test system: Clostridium difficile A21675; test: as above; assay type: cell-based; conditions: GAM agar
Procedure: as §1

[6] = test system: Cryptococcus neoformans IAM 4519; test: as above; assay type: cell-based; conditions: Sabouraud dextrose agar
Procedure: as §1

Escherichia coli NIHJ = test: as above; assay type: cell-based; conditions: Nutrient agar
Procedure: as §1

[7] = test system: Fusarium moniliforme A2284; test: as above; assay type: cell-based; conditions: Sabouraud dextrose agar
Procedure: as §1

[8] = test system: Klebsiella pneumoniae D11; test: as above; assay type: cell-based; conditions: Nutrient agar
Procedure: as §1

Micrococcus luteus 1001 = test: as above; assay type: cell-based; conditions: Nutrient agar
Procedure: as §1

Mucor spinosus IFO 5317 = test: as above; assay type: cell-based
Procedure: as §1

[9] = test system: Propionibacterium acnes A21933; test: as above; assay type: cell-based; conditions: GAM agar
Procedure: as §1

[10] = test system: Propionibacterium anaerobius A21905; test: as above; assay type: cell-based; conditions: GAM agar
Procedure: as §1

Proteus mirabilis A9554 = test: as above; assay type: cell-based; conditions: Nutrient agar
Procedure: as §1

Proteus vulgalis A9436 = test: as above; assay type: cell-based; conditions: Nutrient agar
Procedure: as §1

[11] = test system: Pseudomonas aeruginosa A9930; test: as above; assay type: cell-based; conditions: Nutrient agar
Procedure: as §1

[12] = test system: Staphylococcus aureus 209P; test: as above; assay type: cell-based; conditions: Nutrient agar
Procedure: as §1

[13] = test system: Staphylococcus aureus smith; test: as above; assay type: cell-based; conditions: Nutrient agar
Procedure: as §1

[14] = test system: Staphylococcus epidermidis D153; test: as above; assay type: cell-based; conditions: Nutrient agar
Procedure: as §1

[15] = test system: Streptococcus faecalis A9612; test: as above; assay type: cell-based; conditions: Nutrient agar
Procedure: as §1

[16] = test system: Streptococcus pyogenes A20201; test: as above; assay type: cell-based; conditions: Nutrient agar
Procedure: as §1

[17] = test system: Trichophyton mentagrophytes D155; test: as above; assay type: cell-based; conditions: Sabouraud dextrose agar
Procedure: as §1

[18] = test system: Clostridium perfringens A9635; assay type: cell-based; conditions: GAM agar
[19] = test system: B16-F10 (murine melanoma) cells; test: In vitro cytotoxicity, neutral red staining; assay type: cell-based; conditions: B16-F10; 72 hours
Procedure: (§2) BU-3292T components A and B were tested for in vitro cytotoxicity against murine and human tumor cells and for in vivo antitumor activity in mice. Actinomycin D was used as a reference compound in both in vitro and in vivo experiments. B16-F10 (murine melanoma) and Moser (human colorectal carcinoma) cells were grown to the logarithmic phase in enriched Eagle minimum essential medium (MEM) supplemented with fetal calf serum (FCS, 10%) and kanamycin (60 mcg/ml), harvested and inoculated into wells of a 96-well microtiter plate with test materials at the concentrations of 3.0×10^4 and 6.0×10^4 cells/ml, respectively. They were incubated at 37° C. in humidified atmosphere of 5% CO2 and 95% air for 72 hours. The cytotoxic activity was determined colorimetrically at 540 nm after staining viable cells with neutral red. […] Inhibitory effects of BU-3292T component A on macromolecule (DNA, RNA and protein) synthesis were determined in vitro. Cultured L1210 murine leukemia cells (5×10^5 cells/ml) were incubated with test materials at 37° C. for 15 minutes and then further incubated for 60 minutes after the addition of labelled precursor, ^3 H-thymidine, ^14 C-uridine or ^3 H-leucine, into the cultured mixtures. After washing with chilled 5% trichloroacetic acid solution, the radioactivity incorporated into the acid-insoluble fraction of the tumor cells was determined in a liquid scintillation counter. […] In vivo antitumor activities of BU-3292T components A and B were tested in tumor-bearing female CDF mice. After the intraperitoneal implantation of diluted ascitic fluid with 1.0 ×10^6 lymphocytic leukemia P388 cells into the mice, test compounds were administered intraperitoneally once a day on days 1, 2 and 3 (QD×3).

[20] = test system: Moser (human colorectal carcinoma) cells; test: In vitro cytotoxicity, neutral red staining; assay type: cell-based; conditions: 72 hours
Procedure: as §2

[21] = test system: DNA synthesis in L1210 leukemia cells; test: Inhibition of macromolecule synthesis, 3H-thymidine incorporation; assay type: cell-based, murine
Procedure: BU-3292T components A and B were tested for in vitro cytotoxicity against murine and human tumor cells and for in vivo antitumor activity in mice. Actinomycin D was used as a reference compound in both in vitro and in vivo experiments. B16-F10 (murine melanoma) and Moser (human colorectal carcinoma) cells were grown to the logarithmic phase in enriched Eagle minimum essential medium (MEM) supplemented with fetal calf serum (FCS, 10%) and kanamycin (60 mcg/ml), harvested and inoculated into wells of a 96-well microtiter plate with test materials at the concentrations of 3.0×10^4 and 6.0×10^4 cells/ml, respectively. They were incubated at 37° C. in humidified atmosphere of 5% CO2 and 95% air for 72 hours. The cytotoxic activity was determined colorimetrically at 540 nm after staining viable cells with neutral red. […] Inhibitory effects of BU-3292T component A on macromolecule (DNA, RNA and protein) synthesis were determined in vitro. […] After washing with chilled 5% trichloroacetic acid solution, the radioactivity incorporated into the acid-insoluble fraction of the tumor cells was determined in a liquid scintillation counter. […]

[22] = test system: RNA synthesis in L1210 leukemia cells; test: Inhibition of macromolecule synthesis, 14C-uridine incorporation; assay type: cell-based, murine; conditions: L1210 leukemia cells; 14C-uridine
Procedure: as §2

[23] = test system: Protein synthesis in L1210 leukemia cells; test: Inhibition of macromolecule synthesis, 3H-leucine incorporation; assay type: cell-based, murine; conditions: L1210 leukemia cells; 3H-leucine
Procedure: as §2

[24] = test system: lymphocytic leukemia P388; test: Antitumor activity against P388 leukemia (ip); assay type: in vivo, mice; conditions: QD × 3, ip
Procedure: as §2

[25] = Body weight change in P388-bearing mice; conditions: QD × 3, ip
Procedure: as §2

`Cc1c2oc3c(C)ccc(C(=O)N[C@@H]4C(=O)N[C@H](C(C)C)C(=O)N5CCC[C@H]5C(=O)N(C)CC(=O)N(C)[C@@H](C(C)C)C(=O)O[C@@H]4C)c3nc-2c(C(=O)N[C@@H]2C(=O)N[C@H](C(C)C)C(=O)N3CCC[C@H]3C(=O)N(C)CC(=O)N(C)[C@@H](C(C)C)C(=O)O[C@@H]2C)c(N)c1=O` [Actinomycin D, reference compound] (I: T[dV]P[Sar][NMeV] / II: T[dV]P[Sar][NMeV]; ester I:1-I:C, II:1-II:C; linker I:N-II:N via Actinocin(9to1)) gave an MIC [1] of over 100 µg/mL, an MIC [2] of 0.2 µg/mL (≈ 0.159 µM) and an MIC [3] of over 100 µg/mL. The MIC [4] was over 100 µg/mL, the MIC [5] was 25 µg/mL (≈ 19.9 µM) and the MIC [6] was over 100 µg/mL. The MIC (Escherichia coli NIHJ) was over 100 µg/mL, the MIC [7] was over 100 µg/mL and the MIC [8] was 25 µg/mL (≈ 19.9 µM). The MIC (Micrococcus luteus 1001) was 0.2 µg/mL (≈ 0.159 µM), the MIC (Mucor spinosus IFO 5317; Mucor spinosus IFO 5317, Sabouraud dextrose agar) was over 100 µg/mL and the MIC (Mucor spinosus IFO 5317; in vitro against Mucor spinosus IF05317) was over 100 µg/mL. For the same compound, the MIC [9] was 6.3 µg/mL (≈ 5.02 µM), the MIC [10] was 1.6 µg/mL (≈ 1.27 µM) and the MIC (Proteus mirabilis A9554) was over 100 µg/mL. The MIC (Proteus vulgalis A9436) was over 100 µg/mL, the MIC [11] was 100 µg/mL (≈ 79.7 µM) and the MIC [12] was 0.4 µg/mL (≈ 0.319 µM). For the same compound, the MIC [13] was 0.4 µg/mL (≈ 0.319 µM), the MIC [14] was 0.4 µg/mL (≈ 0.319 µM) and the MIC [15] was 0.1 µg/mL (≈ 0.0797 µM). The MIC [16] was 0.2 µg/mL (≈ 0.159 µM), the MIC [17] was over 100 µg/mL and the MIC [18] was 6.3 µg/mL (≈ 5.02 µM). The IC50 [19] was 0.002 µg/mL (≈ 0.00159 µM), the IC50 [20] was 0.9 µg/mL (≈ 0.717 µM) and the “IC50 DNA” value [21] was 8.1 µg/mL (≈ 6.45 µM). The “IC50 RNA” value [22] was 0.17 µg/mL (≈ 0.135 µM), the “IC50 Protein” value [23] was over 100 µg/mL and the “MST (Median survival time)” value ([24]; 0.001 mg/kg/day) was 11.0 days. For the same compound, the T/C ([24]; 0.001 mg/kg/day) was 110%, the “MST (Median survival time)” value ([24]; 0.003 mg/kg/day) was 13.5 days and the T/C ([24]; 0.003 mg/kg/day) was 135%. For the same compound, the “MST (Median survival time)” value ([24]; 0.01 mg/kg/day) was 14.0 days, the T/C ([24]; 0.01 mg/kg/day) was 140% and the “MST (Median survival time)” value ([24]; 0.03 mg/kg/day) was 15.0 days. For the same compound, the T/C ([24]; 0.03 mg/kg/day) was 150%, the “MST (Median survival time)” value ([24]; 0.1 mg/kg/day) was 16.0 days and the T/C ([24]; 0.1 mg/kg/day) was 160%. For the same compound, the “MST (Median survival time)” value ([24]; 0.3 mg/kg/day) was 7.0 days, the T/C ([24]; 0.3 mg/kg/day) was 70% and the “Body weight change on day 4” value ([25]; 0.001 mg/kg/day) was “+1.3 g”. For the same compound, the “Body weight change on day 4” value ([25]; 0.01 mg/kg/day) was “+1.3 g”, the “Body weight change on day 4” value ([25]; 0.03 mg/kg/day) was “+0.5 g” and the “Body weight change on day 4” value ([25]; 0.1 mg/kg/day) was -2.0 g. The “Body weight change on day 4” value ([25]; 0.3 mg/kg/day) was -3.5 g.
